From patent US20100286215A1, “BIS-AROMATIC COMPOUNDS USEFUL IN THE TREATMENT OF INFLAMMATION” (BIS-AROMATIC COMPOUNDS USEFUL IN THE TREATMENT OF …, priority 2007, published 2010) come the findings set out here.

One test concerns the target T1, Recombinant human LTC4 synthase (Homo sapiens, UniProt Q16873).
T1 construct: made in house; host or cells: Pichia pastoris ('Piccia pastoralis' [sic])
T1 sequence (Q16873 1-150): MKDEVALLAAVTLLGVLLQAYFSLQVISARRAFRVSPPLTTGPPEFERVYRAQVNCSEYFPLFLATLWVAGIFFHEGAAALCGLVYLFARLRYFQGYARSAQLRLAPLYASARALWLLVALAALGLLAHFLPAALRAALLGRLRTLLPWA
As to the kind of experiment: LTC4 synthase assay (conversion of LTA4 methyl ester to LTC4 methyl ester, HPLC). It is filed as biochemical.
Conditions: not given
Here is the method: In the assay LTC4 synthase catalyses the reaction where the substrate LTA4 methyl ester is converted to LTC4 methyl ester. Recombinant human LTC4 synthase is expressed in Piccia pastoralis and the purified enzyme is dissolved in 25 mM Tris-buffer pH 7.8 and stored at −20° C. The assay is performed in phosphate buffered saline (PBS) pH 7.4, supplemented with 5 mM glutathione (GSH). The reaction is terminated by addition of acetonitrile/MeOH/acetic acid (50/50/1). The assay is performed at rt in 96-well plates. Analysis of the formed LTC4 methyl ester is performed with reversed phase HPLC (Waters 2795 utilizing an Onyx Monolithic C18 column). The mobile phase consists of acetonitrile/MeOH/H2O (32.5/30/37.5) with 1% acetic acid pH adjusted with NH3 to pH 5.6, and absorbance measured at 280 nm with a Waters 2487 UV-detector.
The following is added chronologically to each well: • 1. 50 μl assay buffer, PBS with 5 mM GSH. • 2. 0.5 μl inhibitor in DMSO. • 3. 2 μl LTC4 synthase in PBS. The total protein concentration in this solution is 0.025 mg/ml. Incubation of the plate at room temperature for 10 minutes. • 4. 0.5 μl LTA4 methyl ester. Incubation of the plate at rt for 1 min. • 5. 50 μl stop solution. 80 μl of the incubation mixture is analysed with HPLC.
In the case of `CC(C)Oc1ccc(Nc2ccc(C(=O)c3ccc(Nc4ccc(OC(C)C)cc4)c(C(=O)O)c3)cc2C(=O)O)cc1` [Example 2, 2-(4-isopropoxyphenylamino)-5-(4-(4-isopropoxyphenylamino)-3-carboxyphenylcarbonyl)benzoic acid], the IC50 is 258 nM.

Take `O=C(c1ccc(NS(=O)(=O)c2ccc([N+](=O)[O-])cc2)c(C(=O)O)c1)c1ccc(NS(=O)(=O)c2ccc([N+](=O)[O-])cc2)c(C(=O)O)c1` [Example 4, 2-((4-nitrophenyl)sulfonylamino)-5-(3-carboxy-4-(((4-nitrophenyl)-sulfonyl)amino)benzoyl)benzoic acid]: the IC50 is 191 nM.

As to `O=C(Nc1ccc(C(=O)c2ccc(NC(=O)c3ccc(C(F)(F)F)cc3F)c(C(=O)O)c2)cc1C(=O)O)c1ccc(C(F)(F)F)cc1` [Example 8, 2-(2-fluoro-4-(trifluoromethyl)benzamido)-5-(4-(4-(tri-fluoromethyl)benzamido)-3-carboxyphenylcarbonyl)-benzoic acid], the IC50 worked out at 73 nM.

Staying with this test, now noted: inhibitor concentration 0.3 μM; read-out: Percantage Inhibition (at a concentration of 0.3 μM).
As for `CCCCc1ccc(C(=O)Nc2ccc(C(=O)c3ccc(NC(=O)c4ccc(C(F)(F)F)cc4)c(C(=O)O)c3)cc2C(=O)O)cc1` [Example 9, 2-(4-butylbenzamido)-5-(4-(4-(trifluoromethyl)benzamido)-3-carboxyphenylcarbonyl)-benzoic acid], the inhibition at 0.3 µM is 92%.

The test is the same for the next values; noted with them: inhibitor concentration 10 μM.
`O=C(c1ccc(Oc2ccc(Cl)cc2)c(C(=O)O)c1)c1ccc(Oc2ccc(Cl)cc2)c(C(=O)O)c1` [11:3, 5-{3-Carboxy-[4-(chlorophenoxy)]-benzoyl}-2-(4-chlorophenoxy)-benzoic acid]: the “Percantage Inhibition at 10 μM (unless specified otherwise)” value was 97%.

In the case of `CCCCOc1ccc(S(=O)(=O)Nc2ccc(C(=O)c3ccc(NS(=O)(=O)c4ccc(OCCCC)cc4)c(C(=O)O)c3)cc2C(=O)O)cc1` [Example 7], the “Percantage Inhibition at 10 μM (unless specified otherwise)” value came to 97%.

The same test, now with this note: inhibitor concentration 10 μM; read-out: Percantage Inhibition at 10 μM (unless specified otherwise).
For `O=C(c1ccc(Nc2ccc(F)c(F)c2)cc1)c1ccc(Oc2ccc(F)c(F)c2)c(C(=O)O)c1` [8:1, 2-(3,4-Difluoro-phenoxy)-5-[4-(3,4-difluoro-phenylamino)-benzoyl]-benzoic acid], the inhibition at 10 µM stood at 97%.

On to `O=C(c1ccc(Nc2cccc(Cl)c2)cc1)c1ccc(Oc2ccc(F)c(F)c2)c(C(=O)O)c1` [8:2, 5-[4-(3-Chloro-phenylamino)-benzoyl]-2-(3,4-difluoro-phenoxy)-benzoic acid], for which the inhibition at 10 µM came out at 98%.

In the case of `O=C(c1ccc(Nc2ccc(Cl)cc2)cc1)c1ccc(Oc2ccc(F)c(F)c2)c(C(=O)O)c1` [8:3, 5-[4-(4-Chloro-phenylamino)-benzoyl]-2-(3,4-difluoro-phenoxy)-benzoic acid], the inhibition at 10 µM worked out at 100%.

Regarding `O=C(Nc1ccc(C(=O)c2ccc(Oc3ccc(F)c(F)c3)c(C(=O)O)c2)cc1)c1cccc(Cl)c1` [8:4, 5-[4-(3-Chloro-benzoylamino)-benzoyl]-2-(3,4-difluoro-phenoxy)-benzoic acid], the inhibition at 10 µM was found to be 88%.

In the case of `O=C(c1ccc(Oc2ccc(C(F)(F)F)cc2)cc1)c1ccc(Oc2ccc(F)c(F)c2)c(C(=O)O)c1` [8:5, 2-(3,4-Difluoro-phenoxy)-5-[4-(4-trifluoromethyl-phenoxy)-benzoyl]-benzoic acid], the inhibition at 10 µM was 96%.

For `CN(c1ccc(Cl)cc1)c1ccc(C(=O)c2ccc(Nc3cccc(C(F)(F)F)c3)c(C(=O)O)c2)cc1` [9:1, 5-{4-[(4-Chloro-phenyl)-methyl-amino]-benzoyl}-2-(3-trifluoromethyl-phenylamino)-benzoic acid], the inhibition at 10 µM came to 90%.

As to `CN(c1ccc(Cl)cc1)c1ccc(C(=O)c2ccc(Nc3ccccc3C(F)(F)F)c(C(=O)O)c2)cc1` [9:2, 5-{4-[(4-Chloro-phenyl)-methyl-amino]-benzoyl}-2-(2-trifluoromethyl-phenylamino)-benzoic acid], the inhibition at 10 µM is 55%.

In the case of `CN(c1ccc(Cl)cc1)c1ccc(C(=O)c2ccc(Nc3ccc(C(F)(F)F)cc3)c(C(=O)O)c2)cc1` [9:3, 5-{4-[(4-Chloro-phenyl)-methyl-amino]-benzoyl}-2-(4-trifluoromethyl-phenylamino)-benzoic acid], the inhibition at 10 µM came out at 86%.

Turning to `CN(c1ccc(Cl)cc1)c1ccc(C(=O)c2ccc(Oc3cccc4c3CCCC4)c(-c3nnn[nH]3)c2)cc1` [10:1, {4-[(4-Chloro-phenyl)-methyl-amino]-phenyl}-[4-(5,6,7,8-tetrahydro-naphthalen-1-yloxy)-3-(1H-tetrazol-5-yl)-phenyl]-methanone], the inhibition at 10 µM amounted to 97%.

Regarding `CN(c1ccc(Cl)cc1)c1ccc(C(=O)c2ccc(Oc3cccc(Cl)c3)c(-c3nnn[nH]3)c2)cc1` [10:2, [4-(3-Chloro-phenoxy)-3-(1H-tetrazol-5-yl)-phenyl]-{4-[(4-chloro-phenyl)-methyl-amino]-phenyl}-methanone], the inhibition at 10 µM turned out to be 84%.

`CN(c1ccc(Cl)cc1)c1ccc(C(=O)c2ccc(Nc3ccc(C(F)(F)F)cc3)c(-c3nnn[nH]3)c2)cc1` [10:3, {4-[(4-Chloro-phenyl)-methyl-amino]-phenyl}-[3-(1H-tetrazol-5-yl)-4-(4-trifluoromethyl-phenylamino)-phenyl]-methanone]: the inhibition at 10 µM worked out at 71%.

Turning to `CN(c1ccc(Cl)cc1)c1ccc(C(=O)c2ccc(NC(=O)c3cccc(Cl)c3Cl)c(-c3nnn[nH]3)c2)cc1` [10:4, 2,3-Dichloro-N-[4-{4-[(4-chloro-phenyl)-methyl-amino]-benzoyl}-2-(1H-tetrazol-5-yl)-phenyl]-benzamide], the inhibition at 10 µM came to 77%.

As to `O=C(c1ccc(Nc2ccc(Cl)cc2)c(C(=O)O)c1)c1ccc(Nc2ccc(Cl)cc2)c(C(=O)O)c1` [11:1, 5-{3-Carboxy-[4-(4-chloro-phenylamino)]-benzoyl}-2-(4-chloro-phenylamino)-benzoic acid], the inhibition at 10 µM is 97%.

Regarding `CN(c1ccc(Cl)cc1)c1ccc(C(=O)c2ccc(N(C)c3ccc(Cl)cc3)c(C(=O)O)c2)cc1C(=O)O` [11:2, 5-{3-Carboxy-4-[(4-chlorophenyl)-methyl-amino]benzoyl}-2-[(4-chloro-phenyl)-methyl-amino]benzoic acid], the inhibition at 10 µM turned out to be 82%.

For the compound `O=C(CC1CCCC1)Nc1ccc(C(=O)c2ccc(NC(=O)c3ccc(Cl)cc3Cl)c(C(=O)O)c2)cc1` [14:1, 5-[4-(2-Cyclopentyl-acetylamino)-benzoyl]-2-(2,4-dichloro-benzoylamino)-benzoic acid], the inhibition at 10 µM is 93%.

Regarding `CCCCCCC(=O)Nc1ccc(C(=O)c2ccc(NC(=O)c3ccc(Cl)cc3Cl)c(C(=O)O)c2)cc1` [14:2, 2-(2,4-Dichloro-benzoylamino)-5-(4-heptanoylamino-benzoyl)-benzoic acid], the inhibition at 10 µM turned out to be 100%.

For `O=C(c1ccc(Nc2ccc(F)c(F)c2)c(C(=O)O)c1)c1ccc(Nc2ccc(F)c(F)c2)c(C(=O)O)c1` [Example 1, 2-(3,4-difluorophenylamino)-5-((4-(3,4-difluorophenylamino)-3-carboxyphenylcarbonyl))benzoic acid], the inhibition at 10 µM stood at 93%.

With `CC(C)Oc1ccc(Nc2ccc(C(=O)c3ccc(Nc4ccc(OC(C)C)cc4)c(C(=O)O)c3)cc2C(=O)O)cc1` [Example 2, 2-(4-isopropoxyphenylamino)-5-(4-(4-isopropoxyphenylamino)-3-carboxyphenylcarbonyl)benzoic acid], the inhibition at 10 µM was 99%.

Take `CCCCc1ccc(C(=O)Nc2ccc(C(=O)c3ccc(NC(=O)c4ccc(CCCC)cc4)c(C(=O)O)c3)cc2C(=O)O)cc1` [Example 3, 2-(4-butylbenzamido)-5-(4-(4-butylbenzamido)-3-carboxy-phenylcarbonyl)benzoic acid]: the inhibition at 10 µM is 98%.

Regarding `O=C(c1ccc(NS(=O)(=O)c2ccc([N+](=O)[O-])cc2)c(C(=O)O)c1)c1ccc(NS(=O)(=O)c2ccc([N+](=O)[O-])cc2)c(C(=O)O)c1` [Example 4, 2-((4-nitrophenyl)sulfonylamino)-5-(3-carboxy-4-(((4-nitrophenyl)-sulfonyl)amino)benzoyl)benzoic acid], the inhibition at 10 µM was 100%.

As to `O=C(c1ccc(NS(=O)(=O)c2ccc(Cl)c(Cl)c2)c(C(=O)O)c1)c1ccc(NS(=O)(=O)c2ccc(Cl)c(Cl)c2)c(C(=O)O)c1` [Example 5, 2-((3,4-dichlorophenyl)sulfonyl-amino)-5-(3-carboxy-4-(((3,4-dichlorophenyl)sulfonyl)amino)-benzoyl)benzoic acid], the inhibition at 10 µM is 98%.

In the case of `O=C(Nc1ccc(C(F)(F)F)cc1)Nc1ccc(C(=O)c2ccc(NC(=O)Nc3ccc(C(F)(F)F)cc3)c(C(=O)O)c2)cc1C(=O)O` [Example 6, 2-[3-(4-trifluoromethylphenyl)-ureido]-5-{3-carboxy-4-[3-(4-trifluoromethylphenyl)ureido]-benzoyl}benzoic acid], the inhibition at 10 µM amounted to 95%.

As to `O=C(Nc1ccc(C(=O)c2ccc(NC(=O)c3ccc(C(F)(F)F)cc3F)c(C(=O)O)c2)cc1C(=O)O)c1ccc(C(F)(F)F)cc1` [Example 8, 2-(2-fluoro-4-(trifluoromethyl)benzamido)-5-(4-(4-(tri-fluoromethyl)benzamido)-3-carboxyphenylcarbonyl)-benzoic acid], the inhibition at 10 µM amounted to 100%.

In the case of `O=C(c1ccc(NC(=O)c2ccc(Cl)cc2Cl)c(C(=O)O)c1)c1ccc(NC(=O)c2ccc(Cl)cc2Cl)c(C(=O)O)c1` [Example 10, 2-(2,4-dichlorobenzamido)-5-(4-(2,4-dichlorobenzamido)-3-carboxyphenylcarbonyl)-benzoic acid], the inhibition at 10 µM stood at 82%.

For `O=C(Nc1ccc(C(=O)c2ccc(NC(=O)c3ccc(Cl)cc3Cl)c(C(=O)O)c2)cc1C(=O)O)c1ccc(OC(F)(F)F)cc1` [Example 11, 2-(4-(trifluoromethoxy)benzamido)-5-(4-(2,4-dichloro-benzamido)-3-carboxyphenyl-carbonyl)benzoic acid], the inhibition at 10 µM amounted to 100%.

Broadly, the IC50 is the concentration that inhibits the measured activity by half.
